This is an account of results in PubChem BioAssay (NCI).

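Briefly, cells in 96-well plates were exposed to five compound concentrations for 48 h, and endpoints were estimated by linear interpolation. TGI: concentration producing complete growth inhibition.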

Test systems include A549 NSCLC; KM12 colon; NCI-H522 lung; OVCAR-8 ovarian; SK-MEL-2 melanoma; SK-MEL-5 melanoma; SNB-75 CNS; T-47D breast; UACC-257 melanoma; UACC-62 melanoma.
What all share (assay): growth of human tumour cells (NCI), 48 h

As for `Cc1c2cccc-2c(OCCO)cc2c1[nH]c1ccccc12`, the TGI with A549 NSCLC came to 11.6 µM; in the assay on KM12 colon it was 7.04 µM; with NCI-H522 lung it was 5.38 µM; in the assay with OVCAR-8 ovarian it was 15.7 µM; in the assay with SK-MEL-2 melanoma, 12 µM; in the assay on SK-MEL-5 melanoma it was 2.95 µM. Besides, the TGI in the assay on SNB-75 CNS is 3.95 µM; in the assay on T-47D breast, 24.2 µM; in the assay with UACC-257 melanoma, 10.7 µM; in the assay with UACC-62 melanoma it was 8.71 µM.

With `CC(=O)Nc1ccc(-c2nc3ccccc3s2)cc1O`, the TGI in the assay with A549 NSCLC is greater than 100 µM; in the assay on KM12 colon, 73 µM; in the assay on NCI-H522 lung, 9.85 µM; in the assay with OVCAR-8 ovarian, greater than 100 µM; with SK-MEL-2 melanoma it was greater than 100 µM; with SK-MEL-5 melanoma, 62.8 µM. Moreover, the TGI was greater than 100 µM in the assay with SNB-75 CNS, greater than 100 µM with T-47D breast, greater than 100 µM in the assay on UACC-257 melanoma and 83.1 µM in the assay on UACC-62 melanoma.

For `N/N=C(\C(=O)Nc1ccc([N+](=O)[O-])cc1)C(C1=Nc2cc([N+](=O)[O-])ccc2NC1)[N+](=O)[O-]` (stereo not given), the TGI in the assay on A549 NSCLC, in the assay on KM12 colon, in the assay on NCI-H522 lung, in the assay on OVCAR-8 ovarian, with SK-MEL-2 melanoma and in the assay with SK-MEL-5 melanoma was greater than 100 µM each time. Also, the TGI with SNB-75 CNS, in the assay with T-47D breast, in the assay on UACC-257 melanoma and with UACC-62 melanoma was greater than 100 µM throughout.

For `CC(NC(=O)C(N)CC(=O)O)NC(=O)N1CCCC1` (stereo not given), the TGI in the assay on A549 NSCLC, in the assay with KM12 colon, in the assay on NCI-H522 lung, with OVCAR-8 ovarian, in the assay with SK-MEL-2 melanoma and with SK-MEL-5 melanoma was greater than 100 µM in each case. The TGI with SNB-75 CNS, with T-47D breast, in the assay on UACC-257 melanoma and in the assay on UACC-62 melanoma was greater than 100 µM in each case.

As to `O=C1NN(c2ccccc2)C(=O)C2C3c4ccccc4C(c4ccccc43)C12` (stereo not given), the TGI in the assay with A549 NSCLC, in the assay on KM12 colon, in the assay on NCI-H522 lung, in the assay on OVCAR-8 ovarian, with SK-MEL-2 melanoma and with SK-MEL-5 melanoma was greater than 100 µM each time. Besides, the TGI in the assay with SNB-75 CNS, in the assay on T-47D breast, in the assay on UACC-257 melanoma and with UACC-62 melanoma was greater than 100 µM in each case.

With `Cn1cnc([N+](=O)[O-])c1Sc1nc(N)nc2c1ncn2Cc1ccccc1`, the TGI in the assay on A549 NSCLC was 84.8 µM; with KM12 colon it was greater than 100 µM; in the assay on NCI-H522 lung it was 24.1 µM; in the assay on OVCAR-8 ovarian it was 72.2 µM; in the assay with SK-MEL-2 melanoma, 40.4 µM; in the assay with SK-MEL-5 melanoma it was 41.2 µM. Moreover, the TGI is greater than 100 µM with SNB-75 CNS, 40.9 µM in the assay on T-47D breast, 30.1 µM in the assay with UACC-257 melanoma and 31.4 µM in the assay on UACC-62 melanoma.

Take `COC(=O)c1scc(N)c1-n1ccc(=O)[nH]c1=O`: the TGI in the assay with A549 NSCLC, in the assay with KM12 colon, in the assay on NCI-H522 lung, with OVCAR-8 ovarian, in the assay with SK-MEL-2 melanoma and in the assay with SK-MEL-5 melanoma was greater than 100 µM throughout. In addition, the TGI in the assay with SNB-75 CNS, with T-47D breast, in the assay on UACC-257 melanoma and with UACC-62 melanoma was greater than 100 µM throughout.

`CC(=O)O[C@H]1[C@@H](N2CCN(C)CC2)C[C@H]2[C@@H]3CC=C4C[C@@H](N5CCCC5)CC[C@]4(C)[C@H]3CC[C@@]21C`: the TGI in the assay on A549 NSCLC is greater than 100 µM; in the assay on KM12 colon, greater than 100 µM; in the assay with NCI-H522 lung, greater than 100 µM; in the assay with OVCAR-8 ovarian, greater than 100 µM; in the assay with SK-MEL-2 melanoma, greater than 100 µM; in the assay on SK-MEL-5 melanoma, 73 µM. The TGI in the assay on SNB-75 CNS was greater than 100 µM; in the assay on T-47D breast it was greater than 100 µM; in the assay on UACC-257 melanoma, 49.4 µM; in the assay with UACC-62 melanoma it was greater than 100 µM.

Turning to `CC1(C)O[C@@H]2[C@@H]3OC(=O)C[C@@H]3[C@@H](COCc3ccccc3)[C@@H]2O1`, the TGI with A549 NSCLC, in the assay with KM12 colon, with NCI-H522 lung, in the assay on OVCAR-8 ovarian, in the assay on SK-MEL-2 melanoma and with SK-MEL-5 melanoma was greater than 100 µM throughout. Also, the TGI with SNB-75 CNS, in the assay on T-47D breast, with UACC-257 melanoma and with UACC-62 melanoma was greater than 100 µM each time.

With `CC1Cc2cc(O)ccc2C2[C@@H]1C1CC[C@H](O)[C@@]1(C)C[C@@H]2O[N+](=O)[O-]` (stereo not given in full), the TGI in the assay on A549 NSCLC is 79.7 µM; in the assay on KM12 colon it was greater than 79.1 µM; in the assay with NCI-H522 lung, 61.3 µM; in the assay on OVCAR-8 ovarian it was 74 µM; with SK-MEL-2 melanoma, 55.3 µM; in the assay on SK-MEL-5 melanoma, 17.8 µM. Moreover, the TGI is greater than 100 µM with SNB-75 CNS, greater than 84.3 µM in the assay on T-47D breast, 72.3 µM with UACC-257 melanoma and 44 µM in the assay with UACC-62 melanoma.

In the case of `CC1(C)C2CCC1(CC(=O)O)C(Cl)C2` (stereo not given), the TGI in the assay on A549 NSCLC, with KM12 colon, with NCI-H522 lung, in the assay on OVCAR-8 ovarian, in the assay with SK-MEL-2 melanoma and with SK-MEL-5 melanoma was greater than 100 µM in each case. For the same molecule, the TGI in the assay on SNB-75 CNS, in the assay on T-47D breast, in the assay with UACC-257 melanoma and in the assay with UACC-62 melanoma was greater than 100 µM in each case.
